The values that follow come from US12590950B2, “Methods for predicting ER-mediated DNA damage” (UNIVERSITY OF MASSACHUSETTS, priority 2019, dated 2026).

The test system of data set [1] is T47D cells. Put plainly: γH2AX immunostaining (DNA damage) in T47D cells. The format is cell-based, human. To be noted: T47D, 24 h; E2 10 or 100 nM, BP3 1 or 5 μM, PP 1 or 5 μM; vs control. The protocol: Immunostaining: Cells were grown in clearing media for 48 h and plated on 20 mm coverslip in 12 well plates with a density of 2×10^5 cells/well. […] Cells were washed with 1×PBS, blocked in 2% BSA/PBS with 0.1% Triton-X 100 for 1 hr at room temperature (RT), incubated overnight with γH2AX antibody (Cell Signaling #9718 S) or ERα antibody (Santa Cruz Biotechnology #sc-8002) at 4° C. and 1 hour with secondary antibody. S9.6: Cells were fixed in ice-cold 100% methanol for 10 min at −20° C., permeabilized in 100% acetone for 1 min at RT, blocked for 30 min in saline sodium citrate pH 7 (SSC, 4×), 3% BSA, 0.1% Triton-X and incubated with S9.6 (Kerafast #ENH001) 2 hr at RT followed by 1 h with secondary antibody. If indicated, slides were treated with RNase H (NEB #M0297L) for 4 hr at 37° C. prior to incubation with primary antibody. Stained cells were mounted with Vectashield mounting medium containing DAPI (Vector Laboratories #H-1200). Slides were imaged at 60× (immersion oil) with Nikon A1 Spectral Confocal microscope. Analysis of γH2AX and S9.6 intensity per nucleus or foci per nucleus was calculated using Nikon analysis software, where DAPI was used as a mask for the nucleus.

The subject of data set [2] is T47D cells. Kind of data set: S9.6 immunostaining (R-loops) in T47D cells. The format is cell-based, human. To be noted: 5 μM, vs vehicle-treated control. On the procedure:
Immunostaining: Cells were grown in clearing media for 48 h and plated on 20 mm coverslip in 12 well plates with a density of 2×10^5 cells/well. After 24 h of growth, cells were treated with 10 nM E2, 1 or 5 μM BP3, and 1 or 5 μM PP with or without 1 μM fulvestrant. γH2AX/ERα: Cells were fixed in ice-cold methanol (100%) for 10 mins and quenched with 0.1 M Glycine for 15 mins. Cells were washed with 1×PBS, blocked in 2% BSA/PBS with 0.1% Triton-X 100 for 1 hr at room temperature (RT), incubated overnight with γH2AX antibody (Cell Signaling #9718 S) or ERα antibody (Santa Cruz Biotechnology #sc-8002) at 4° C. and 1 hour with secondary antibody. S9.6: Cells were fixed in ice-cold 100% methanol for 10 min at −20° C., permeabilized in 100% acetone for 1 min at RT, blocked for 30 min in saline sodium citrate pH 7 (SSC, 4×), 3% BSA, 0.1% Triton-X and incubated with S9.6 (Kerafast #ENH001) 2 hr at RT followed by 1 h with secondary antibody. If indicated, slides were treated with RNase H (NEB #M0297L) for 4 hr at 37° C. prior to incubation with primary antibody. Stained cells were mounted with Vectashield mounting medium containing DAPI (Vector Laboratories #H-1200). […] Analysis of γH2AX and S9.6 intensity per nucleus or foci per nucleus was calculated using Nikon analysis software, where DAPI was used as a mask for the nucleus.

Data set [3] has as its system 76N-Tert-ESR1 cell line. Kind of data set: S9.6 immunostaining (R-loops) in 76N-Tert-ESR1 cells induced with doxycycline. To be noted: 76N-Tert-ESR1 after induction of ERα with doxycycline, 5 μM.
A further data set relates to AREG and PGR. Put plainly: RT-qPCR of endogenous ER target genes AREG and PGR in T47D and MCF-7 cell lines. Type of data set: cell-based, human. To be noted: for induction of endogenous ER target genes AREG and PGR: 1 μM, T47D and MCF-7; for transcription by endogenous gene expression: 5 μM BP3, 1 μM PP. (In general: In qPCR the cycle at which signal appears reflects the starting amount.)

Data set [4] in a line: Acute oral exposure of ovariectomized mice: uterine weight. Type of data set: in vivo, mouse. The following applies: 4 days, BP3 3000, PP 10000 μg/kg/d. The source says:
Animal Treatment: Forty mature female mice (8 weeks old) BALB/c mice were purchased from Jackson Laboratory and housed in temperature-controlled facilities with a 12-hour alternating day/night light cycle and fed LabChow 5058 ad libitum. All procedures were in accordance with the national guidelines for the care and use of animals and approved by the University of Massachusetts Amherst's Institutional Animal Care and Use Committee.
The mice were ovariectomized before treatment. Briefly, each mouse was anaesthetized with a mix of isofluorance and oxygen. The flanks were shaved, sterilized with betadine and cleaned with alcohol. An incision was made to the skin on the right flank. The underlying muscle layer was nicked to reveal a small hole through which ovary was pulled out by grasping the periovarian fat. A Serrifin clamp was used to hold the ovary. After making sure the blood vessels were constricted to prevent […], the ovary was cut from the uterine horn. The periovarian fat was restored into the peritoneum. The peritoneum was closed with one or two stiches and the skin was closed with 9 mm wound clips. The procedure was repeated on the contralateral side. The mouse was monitored for a week post-procedure and wound clips were removed after 10 days. […]

A further data set has as its target T1, estrogen receptor (Homo sapiens, UniProt P03372).
T1 sequence (P03372 1-595): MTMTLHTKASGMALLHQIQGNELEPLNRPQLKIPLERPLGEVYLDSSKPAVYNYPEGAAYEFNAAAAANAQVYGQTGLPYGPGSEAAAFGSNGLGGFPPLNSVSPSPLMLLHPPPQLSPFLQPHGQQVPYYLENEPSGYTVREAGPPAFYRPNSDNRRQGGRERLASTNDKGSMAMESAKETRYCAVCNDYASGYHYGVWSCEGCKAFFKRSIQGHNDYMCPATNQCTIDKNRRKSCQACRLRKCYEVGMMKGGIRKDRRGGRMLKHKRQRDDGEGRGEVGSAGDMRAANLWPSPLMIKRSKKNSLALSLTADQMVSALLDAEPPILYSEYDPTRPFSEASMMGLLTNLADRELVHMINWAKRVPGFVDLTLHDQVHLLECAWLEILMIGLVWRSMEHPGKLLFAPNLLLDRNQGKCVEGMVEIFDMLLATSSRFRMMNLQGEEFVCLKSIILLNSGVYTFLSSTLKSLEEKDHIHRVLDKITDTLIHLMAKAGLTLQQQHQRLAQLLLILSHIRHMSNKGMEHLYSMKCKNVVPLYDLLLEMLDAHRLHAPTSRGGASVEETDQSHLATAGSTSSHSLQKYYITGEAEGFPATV
Put plainly: Luciferase reporter assay (ERE-luciferase transactivation) in T47D-KBluc cells. The format is cell-based. To be noted: for LOEC (lowest-observed-effect-concentration) for transcription in luciferase assay: T47D-KBluc, 24 h treatment. (In general: A reporter such as luciferase makes a cellular process visible.)

For data set [5] the following is noted: development and reproductive toxicity assays; cited from earlier work.
Data set [6] has as its system 76N-Tert-ESR1 cell line. To be noted: human, 5 µM.

Like-named read-outs stand apart in the source and are kept apart here.

For the compound `C[C@]12CC[C@@H]3c4ccc(O)cc4CC[C@H]3[C@@H]1CC[C@@H]2O` [E2, 17β-estradiol, reference compound], the “nuclear γH2AX intensity” value in the data set on T47D cells [1] is on record as “dose-dependent increase”.

As to `COc1ccc(C(=O)c2ccccc2)c(O)c1` [BP3, 2-Hydroxy-4-methoxybenzophenone], the “nuclear S9.6 foci (R-loops)” value in the data set with T47D cells [2] is “significantly higher”. Moreover, the “nuclear S9.6 foci” value in the data set with 76N-Tert-ESR1 cell line [3] is “increased number of nuclear S9.6 foci significantly over vehicle-treated control”. Also, in the data set with AREG and PGR, the “concentration at which transcriptional response is observed” value is “greater than 5 μM”; the “induction of endogenous ER target genes AREG and PGR” value is listed as “poor agonists”; the “transcription by endogenous gene expression” value is given as “no significant increase in transcription”. Moreover, in the data set with T47D cells [1], the “nuclear γH2AX intensity” value is reported as “increased γH2AX intensity”. Besides, the “uterine weights compared to the control treatment” value in data set [4] is given as “not sufficient”. Also, the “LOEC (lowest-observed-effect-concentration) for transcription in luciferase assay” value on estrogen receptor worked out at 5 µM. In addition, the “Relative Transactivation Activity at 90%ile or 95%ile (% RTA vs E2)” value on estrogen receptor (at 95%ile urine concentration of non-pregnant women) is on record as 18.91 ± 6.62%. The “Relative Transactivation Activity at 90%ile or 95%ile (% RTA vs E2)” value at estrogen receptor (at 95%ile urine concentration of pregnant women) came to 27.16±6.2%. Moreover, the “maximum relative transactivation activity (RTA) compared to 10 nM E2” value at estrogen receptor (maximum) came to 37%. Further, the “no-adverse-effect-level (NOAEL) dose” value in data set [5] was 3000 µg/kg/day.

As to `CCCOC(=O)c1ccc(O)cc1` [PP, propyl parahydroxybenzoate], in the data set on 76N-Tert-ESR1 cell line [6], the “nuclear S9.6 foci” value is on record as “increased number of nuclear S9.6 foci significantly over vehicle-treated control”. In addition, the “nuclear S9.6 foci (R-loops)” value with T47D cells [2] is listed as “significantly higher”. Further, in the data set with AREG and PGR, the “concentration at which transcriptional response is observed” value was “greater than 5 μM”; the “induction of endogenous ER target genes AREG and PGR” value was “poor agonists”; the “transcription by endogenous gene expression” value is on record as “no significant increase in transcription”. Also, the “nuclear γH2AX intensity” value with T47D cells [1] was “significantly higher γH2AX intensity”. For the same compound, in data set [4], the “uterine weights compared to the control treatment” value is “not sufficient”. Moreover, the “LOEC (lowest-observed-effect-concentration) for transcription in luciferase assay” value at estrogen receptor was determined as 0.5 µM. The “no-adverse-effect-level (NOAEL) dose” value in data set [5] is 10000 µg/kg/day.
